Values joined by “and” are separate entries in the source; they are usually repeats but may differ in a detail not shown here. Identical values can stand only once. “Also recorded” adds a separate entry of the source. Like-named read-outs stand apart in the source and are kept apart here.

From patent US12233083B2, “Methods for the use of 5′-adenosine diphosphate ribose (ADPR)” (Invirsa, Inc., priority 2018, dated 2025) come the findings set out here.

The test system of one data set is HSV-1, strain MacIntyre. Kind of data set: Plaque inhibition against HSV-1 strain MacIntyre in A549 cells. It is filed as cell-based, herpes simplex virus type 1. Particulars: for Percent plaque area (ImageJ): A549 cells, duplicate wells. As for the experimental part:
Background: […] Again, acyclovir was included as a positive control. […] Acyclovir was tested at 0.002 and 0.05 mM. A control, with no treatment was also evaluated. […] After virus adsorption, media was removed and monolayers overlaid with semisolid agarose media containing each drug dilution. Monolayers were fixed and stained with crystal violet to visualize virus plaques. Pictures of the test plates were submitted to client for image analysis. Percent plaque area was calculated using ImageJ, version 1.52i.

A further data set concerns Vero cells. Conditions: African green monkey.
The test system of data set [1] is HRSV. Kind of data set: Inhibition of HRSV replication in A549 cells (RSV with Renilla luciferase reporter). It is filed as cell-based, human respiratory syncytial virus. On the technique in general: In a reporter assay the amount or activity of a reporter protein is the signal.
Data set [2] relates to transforming growth factor beta (TGFβ). In words: Cotton rat RSV lung infection: lung TGFβ gene expression by PCR. It is filed as in vivo. Particulars: 0.5% soln, 50 μL IN BID, day 5, vs PBS. How it is done:
(§1) Methods: In view of the reduction in hRSV cellular infection in A549 and human airway epithelial cells, an in vivo experiment in the Cotton Rat was carried out using RSVA2 infection. In this study, adult male cotton rats (6-8 weeks of age) were divided into groups of 4 animals each. Animals were pre-bled for serum collection and ear tagged for identification. All animals were infected via intranasal instillation with 0.1 mL of RSV/A2 at 10^5 plaque-forming units (pfu) per animal.
(§2) At each treatment the animals received 50 μL. On day 5, the animals were sacrificed for viral lung titers and cytokine analysis. Interferon gamma (IFNγ) and transforming growth factor beta (TGFβ) gene expression were analyzed by PCR. The cytokine mRNA level was normalized relative to beta actin.

The subject of data set [3] is HRSV. Kind of data set: Reduction of HRSV cellular infection in A549 cells (RSV with GFP reporter, infected cells counted). It is filed as cell-based, human respiratory syncytial virus.
The next data set relates to Interferon gamma (IFNγ). In words: Cotton rat RSV lung infection: lung IFNγ gene expression by PCR. It is filed as in vivo. Particulars: 0.5% soln, 50 μL IN BID, day 5, vs PBS. How it is done:
as §1, §2

A further data set deals with RSV/A2. Kind of data set: Cotton rat RSV lung infection: lung viral titer. It is filed as in vivo. Particulars: 0.5% soln, 50 μL IN BID, day 5, vs PBS. How it is done: as §1, §2
Data set [4] has as its target purified recombinant GST-SIRT6 protein (Homo sapiens, UniProt Q8N6T7). Particulars: first study. How it is done: This first set of studies was performed using a Western blot method (Rahnasto-Rilla, 2016, Methods Mol. Biol., 1436:259-269) for the in vitro evaluation of Sirt6 deacetylation activity. […] Acetylation level was detected with anti-H3K9Ac antibody and normalized to total H3 histone (FIG. 5 (b)).

The test system of data set [5] is HRSV. Kind of data set: Reduction of HRSV infection in primary human airway epithelial (HAE) cultures (luciferase). It is filed as cell-based, human respiratory syncytial virus. Particulars: 0.9 and 2.7 mg/ml, days 1 and 3 (24 and 72 hours) post inoculation.
For the next data set, the system named is Sirt6. Conditions: 60 μM.

Sequence of purified recombinant GST-SIRT6 protein (Q8N6T7 whole entry): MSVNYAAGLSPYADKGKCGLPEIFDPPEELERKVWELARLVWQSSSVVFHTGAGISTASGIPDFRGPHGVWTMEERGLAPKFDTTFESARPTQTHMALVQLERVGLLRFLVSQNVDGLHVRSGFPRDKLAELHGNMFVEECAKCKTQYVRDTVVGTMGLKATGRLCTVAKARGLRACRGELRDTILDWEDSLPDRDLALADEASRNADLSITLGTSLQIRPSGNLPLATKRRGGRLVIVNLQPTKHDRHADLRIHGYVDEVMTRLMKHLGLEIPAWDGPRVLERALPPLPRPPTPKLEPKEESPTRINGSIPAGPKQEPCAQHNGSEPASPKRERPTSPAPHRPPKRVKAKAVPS

For the compound `Nc1nc2c(ncn2COCCO)c(=O)[nH]1` [Acyclovir], the “HSV-1 plaques observed in wells” value is given as “more smaller plaques, but not as many nor as large as the untreated wells” in the data set with HSV-1, strain MacIntyre (Acyclovir 0.002 mM) and “few small breakthrough plaques” in the data set with HSV-1, strain MacIntyre (acyclovir 0.05 mM). The “Toxicity Grade on Vero Cells” value in the data set on Vero cells (0.1 μM), in the data set with Vero cells (2 μM) and in the data set on Vero cells (50 μM) was 0 throughout.

Take `Nc1ncnc2c1ncn2[C@@H]1O[C@H](COP(=O)([O-])OP(=O)([O-])OC[C@H]2OC(O)[C@H](O)[C@@H]2O)[C@@H](O)[C@H]1O.[Li+].[Li+]` (some centres unmarked) [Li2-ADPR, dilithium ADPR]: the “inhibition of RSV replication (luminescence), difference” value with HRSV [1] (2.7 mg/ml) is recorded as “five”. Further, the “HRSV replication (luminescence) with increasing concentrations” value in the data set with HRSV [1] (days 1 and 2 after infection) is listed as “significant dose-dependent inhibition”. For the same compound, in data set [2], the “lung TGFβ mRNA (normalized to beta actin)” value is given as “significant decrease”. In addition, the “Percent plaque area (ImageJ)” value was 8.1% and 8.3% with HSV-1, strain MacIntyre (0.1 mM); 14.3% and 7.3% in the data set on HSV-1, strain MacIntyre (0.4 mM); 4.8% and 3.8% in the data set on HSV-1, strain MacIntyre (1.2 mM). Moreover, the “HSV-1 plaques observed in wells” value was “plaques similar in number and size as the untreated wells” with HSV-1, strain MacIntyre (Li2-ADPR 0.1 mM); “the plaque number decreased and the plaque size decreased” in the data set with HSV-1, strain MacIntyre (Li2-ADPR increased from 0.4 to 1.2 mM). The “reduction of percentage of A549 cells infected with HRSV” value with HRSV [3] (0.1 mg/ml) is roughly 50%; in the data set on HRSV [3] (2.7 mg/ml), roughly 85%. In the data set on HRSV [3] (days 1 and 2 after inoculation), the “percentage of A549 cells infected with increasing concentrations” value is “significant reduction”. The “lung IFNγ mRNA (normalized to beta actin)” value with Interferon gamma (IFNγ) was “increase”. Further, the “lung RSV titers” value with RSV/A2 was “reduced”. For the same compound, the “Sirt6 deacetylation activity (inverse of H3K9Ac / total H3)” value was “increasing activation” in data set [4] (between 0.01 and 1 μM); “variable activity” in data set [4] (concentrations of 10 μM and above). The “RSV replication / percentage of cells infected in HAE cultures (luciferase activity)” value in the data set on HRSV [5] is on record as “significantly inhibiting; also recorded: significant reduction”. Further, the “Sirt6 protein concentration relative to baseline (No Treat lane)” value in the data set on Sirt6 (30 minutes) is 155%; with Sirt6 (two hours) it was “returned to baseline”.
